Data on 6 compounds can be found in patent US4656258A, “Macrocin derivatives” (Eli Lilly and Company, priority 1985, dated 1987).

Molecules are shown by their SMILES. Converted amounts (≈) assume the structure as drawn.

For experiment [1], the system named is Pasteurella multocida 60A. The experiment in a line: broth-dilution microtiter MIC. In kind it is cell-based. As to conditions: avian isolate. On the procedure: (§1) The MIC's in Table I were determined by standard agar-dilution assays. The MIC's in Table II were obtained using a conventional broth-dilution microtiter test.
Another experiment concerns Streptococcus sp. 80. In words: broth-dilution microtiter MIC. In kind it is cell-based. On the procedure: as §1
The test system of experiment [2] is Pasteurella multocida 17E. In words: broth-dilution microtiter MIC. In kind it is cell-based. As to conditions: bovine isolate. On the procedure:
as §1

For another experiment, the system named is Staphylococcus aureus. The experiment in a line: broth-dilution microtiter MIC. In kind it is cell-based. On the procedure:
as §1

The subject of experiment [3] is Mycoplasma hyopneumonia S-5972. In words: broth-dilution microtiter MIC. In kind it is cell-based. As to conditions: S5972. On the procedure: as §1
The subject of another experiment is Mycoplasma gallisepticum. In words: antimycoplasmal activity in experimentally infected chicks. In kind it is in vivo. As to conditions: gavage, 0.5 g/gal × 5, 21 days after infection; for Number with Antibodies / Number Tested: antibodies to M. gallisepticum; for Number with Antibodies / Number Tested / Number with Air-Sac Lesions / Number Treated: infected control 10/10, uninfected control 0/10; for Mortality: infected control 2/7. On the procedure:
In these tests infections were induced in chicks by injecting 0.2 ml of a broth culture of M. gallisepticum into the abdominal air sac of one- to three-day-old chicks. The compounds were administered by gavage at a dose equivalent to 0.5 g/gal two times on the day of infection, two times on the day following infection and one time on the third day. Twenty-one days after infection the chicks were weighed, a blood sample was taken, and the chicks were sacrificed. The presence or absence of air-sac lesions was recorded.

In experiment [4] the test system is Streptococcus pyogenes C203. The experiment in a line: agar-dilution MIC. In kind it is cell-based. On the procedure:
as §1

Experiment [5] concerns Staphylococcus aureus X1.1. In words: agar-dilution MIC. In kind it is cell-based. On the procedure:
as §1

For experiment [6], the system named is Klebsiella pneumoniae X26. In words: agar-dilution MIC. In kind it is cell-based. On the procedure: as §1
The test system of experiment [7] is Staphylococcus aureus X400. The experiment in a line: agar-dilution MIC. In kind it is cell-based. As to conditions: Staphylococcus aureus X400, methicillin-resistant strain. On the procedure:
as §1

Experiment [8] concerns Haemophilus influenzae 76. In words: agar-dilution MIC. In kind it is cell-based. As to conditions: Haemophilus influenzae 76, ampicillin-resistant strain. On the procedure: as §1
In experiment [9] the test system is Streptococcus pneumoniae Park I. The experiment in a line: agar-dilution MIC. In kind it is cell-based. On the procedure:
as §1

The test system of experiment [10] is Staphylococcus aureus V41. In words: agar-dilution MIC. As to conditions: Staphylococcus aureus V41, penicillin-resistant strain. In kind it is cell-based. On the procedure: as §1
The subject of experiment [11] is Haemophilus influenzae C.L. The experiment in a line: agar-dilution MIC. In kind it is cell-based. As to conditions: ampicillin-sensitive strain. On the procedure:
as §1

Experiment [12] has as its system Staphylococcus aureus S13E. In words: agar-dilution MIC. In kind it is cell-based. On the procedure: as §1
Experiment [13] relates to Staphylococcus epidermidis EPI1. In words: agar-dilution MIC. In kind it is cell-based. On the procedure: as §1
The subject of experiment [14] is Streptococcus pneumoniae Group D 9960. In words: agar-dilution MIC. In kind it is cell-based. As to conditions: GROUPD9960. On the procedure: as §1
Experiment [15] deals with Staphylococcus epidermidis EPI2. The experiment in a line: agar-dilution MIC. In kind it is cell-based. On the procedure: as §1
Another experiment deals with Eschericia coli TEM. In words: agar-dilution MIC. In kind it is cell-based. On the procedure: as §1
Experiment [16] deals with Streptococcus pneumoniae Group D X66. The experiment in a line: agar-dilution MIC. In kind it is cell-based. On the procedure:
as §1

The conditions of experiment [17]: macrocin vs tylosin, lactenocin vs desmycosin; cited from earlier work.

Regarding `CCCC(=O)OC1C(C)OC(OC2C(C)OC(OC3C(CC=O)CC(C)C(=O)C=CC(C)=CC(COC4OC(C)C(O)C(O)C4OC)C(CC)OC(=O)CC(OC(C)=O)C3C)C(O)C2N(C)C)CC1(C)O` (stereo not shown) [3-Acetyl-4"-(n-Butyryl)-macrocin, 3-O-Acetyl-4"-O-(n-Butyryl)macrocin], the MIC in experiment [1] was found to be 50 µg/mL (≈ 49.3 µM); against Streptococcus sp. 80 it was 0.39 µg/mL (≈ 0.385 µM); in experiment [2], 50 µg/mL (≈ 49.3 µM); with Staphylococcus aureus it was 3.12 µg/mL (≈ 3.08 µM); in experiment [3], 0.048 µg/mL (≈ 0.0473 µM); in experiment [4], 0.5 µg/mL (≈ 0.493 µM). Moreover, the MIC in [5] is 1 µg/mL (≈ 0.986 µM); in experiment [6] it was 64 µg/mL (≈ 63.1 µM); in experiment [7], 2 µg/mL (≈ 1.97 µM); in experiment [8] it was 32 µg/mL (≈ 31.6 µM); in experiment [9] it was 0.25 µg/mL (≈ 0.246 µM); in [10], 1 µg/mL (≈ 0.986 µM). Also, the MIC was 32 µg/mL (≈ 31.6 µM) in experiment [11]; 2 µg/mL (≈ 1.97 µM) in experiment [12]; 1 µg/mL (≈ 0.986 µM) in [13]; 2 µg/mL (≈ 1.97 µM) in experiment [14]; 2 µg/mL (≈ 1.97 µM) in experiment [15]; above 128 µg/mL against Eschericia coli TEM. In addition, the MIC in experiment [16] is 2 µg/mL (≈ 1.97 µM). For the same compound, in the experiment with Mycoplasma gallisepticum, the “Number with Antibodies / Number Tested” value is on record as 7/9. Besides, in the experiment with Mycoplasma gallisepticum, the Mortality is 1/7. Besides, in the experiment with Mycoplasma gallisepticum, the “Number with Air-Sac Lesions / Number Treated” value was 7/10.
As for `CCC1OC(=O)CC(OC(C)=O)C(C)C(OC2OC(C)C(OC3CC(C)(O)C(OC(=O)CC(C)C)C(C)O3)C(N(C)C)C2O)C(CC=O)CC(C)C(=O)C=CC(C)=CC1COC1OC(C)C(O)C(O)C1OC` (stereo not shown) [3-Acetyl-4"-Isovaleryl-macrocin, 3-O-acetyl-4"-O-isovalerylmacrocin], the MIC in experiment [1] was above 50 µg/mL; in the experiment on Streptococcus sp. 80 it was 0.39 µg/mL (≈ 0.379 µM); in experiment [2], 50 µg/mL (≈ 48.6 µM); with Staphylococcus aureus, 1.56 µg/mL (≈ 1.52 µM); in experiment [3] it was 0.048 µg/mL (≈ 0.0467 µM); in [4], 0.25 µg/mL (≈ 0.243 µM). Also, the MIC in experiment [5] worked out at 0.5 µg/mL (≈ 0.486 µM); in experiment [6], 64 µg/mL (≈ 62.2 µM); in [7], 2 µg/mL (≈ 1.95 µM); in experiment [8], 16 µg/mL (≈ 15.6 µM); in [9], 0.5 µg/mL (≈ 0.486 µM); in experiment [10], 1 µg/mL (≈ 0.973 µM). Further, the MIC in experiment [11] turned out to be 32 µg/mL (≈ 31.1 µM); in experiment [12], 1 µg/mL (≈ 0.973 µM); in experiment [13], 0.5 µg/mL (≈ 0.486 µM); in experiment [14] it was 2 µg/mL (≈ 1.95 µM); in [15] it was 2 µg/mL (≈ 1.95 µM); in the experiment on Eschericia coli TEM, 128 µg/mL (≈ 124 µM). In experiment [16], this compound displayed an MIC of 2 µg/mL (≈ 1.95 µM). Further, the “Number with Antibodies / Number Tested” value in the experiment with Mycoplasma gallisepticum is reported as 10/10. Also, the Mortality in the experiment on Mycoplasma gallisepticum was 0/10. The “Number with Air-Sac Lesions / Number Treated” value in the experiment with Mycoplasma gallisepticum is reported as 1/10.
With `CCC1OC(=O)CC(OC(C)=O)C(C)C(OC2OC(C)C(O)C(N(C)C)C2O)C(CC=O)CC(C)C(=O)C=CC(C)=CC1COC1OC(C)C(O)C(O)C1OC` (stereo not shown) [3-Acetyl-lactenocin, 3-O-Acetyllactenocin], the MIC in experiment [1] amounted to 25 µg/mL (≈ 31.3 µM); against Streptococcus sp. 80 it was 1.56 µg/mL (≈ 1.95 µM); in experiment [2], 12.5 µg/mL (≈ 15.6 µM); in the experiment on Staphylococcus aureus it was 3.12 µg/mL (≈ 3.9 µM); in [4], 0.25 µg/mL (≈ 0.313 µM); in experiment [5], 1 µg/mL (≈ 1.25 µM). Moreover, the MIC in experiment [6] was determined as 32 µg/mL (≈ 40 µM); in experiment [7], 4 µg/mL (≈ 5 µM); in experiment [8] it was 8 µg/mL (≈ 10 µM); in experiment [9] it was 0.5 µg/mL (≈ 0.625 µM); in experiment [10] it was 2 µg/mL (≈ 2.5 µM); in experiment [11] it was 16 µg/mL (≈ 20 µM). Also, the MIC in [12] amounted to 2 µg/mL (≈ 2.5 µM); in experiment [13], 1 µg/mL (≈ 1.25 µM); in [14], 8 µg/mL (≈ 10 µM); in [15] it was 4 µg/mL (≈ 5 µM); in the experiment with Eschericia coli TEM, 64 µg/mL (≈ 80 µM); in [16], 8 µg/mL (≈ 10 µM).
For `CCC1OC(=O)CC(OC(C)=O)C(C)C(OC2OC(C)C(OC3CC(C)(O)C(O)C(C)O3)C(N(C)C)C2O)C(CC=O)CC(C)C(=O)C=CC(C)=CC1COC1OC(C)C(O)C(O)C1OC` (stereo not shown) [3-Acetyl-macrocin, 3-O-Acetylmacrocin], the MIC in [1] was above 50 µg/mL; in the experiment on Streptococcus sp. 80, 1.56 µg/mL (≈ 1.65 µM); in experiment [2] it was 50 µg/mL (≈ 53 µM); against Staphylococcus aureus, 1.56 µg/mL (≈ 1.65 µM); in experiment [4], 0.25 µg/mL (≈ 0.265 µM); in experiment [5], 0.5 µg/mL (≈ 0.53 µM). Also, the MIC in [6] was found to be 64 µg/mL (≈ 67.8 µM); in [7], 2 µg/mL (≈ 2.12 µM); in experiment [8] it was 16 µg/mL (≈ 16.9 µM); in experiment [9], 0.5 µg/mL (≈ 0.53 µM); in experiment [10] it was 1 µg/mL (≈ 1.06 µM); in experiment [11] it was 32 µg/mL (≈ 33.9 µM). Further, the MIC was 1 µg/mL (≈ 1.06 µM) in experiment [12]; 0.5 µg/mL (≈ 0.53 µM) in experiment [13]; 2 µg/mL (≈ 2.12 µM) in experiment [14]; 2 µg/mL (≈ 2.12 µM) in experiment [15]; 64 µg/mL (≈ 67.8 µM) in the experiment on Eschericia coli TEM; 2 µg/mL (≈ 2.12 µM) in experiment [16].
`CCC1OC(=O)CC(O)C(C)C(OC2OC(C)C(O)C(N(C)C)C2O)C(CC=O)CC(C)C(=O)C=CC(C)=CC1COC1OC(C)C(O)C(O)C1OC` (stereo not shown) [lactenocin]: the “antibiotic activity relative to tylosin / desmycosin” value in [17] was “less than that of tylosin and desmycosin, respectively”.
With `CCC1OC(=O)CC(O)C(C)C(OC2OC(C)C(OC3CC(C)(O)C(O)C(C)O3)C(N(C)C)C2O)C(CC=O)CC(C)C(=O)C=CC(C)=CC1COC1OC(C)C(O)C(O)C1OC` (stereo not shown) [macrocin], in experiment [17], the “antibiotic activity relative to tylosin / desmycosin” value is on record as “less than that of tylosin”.
